What follows are molecules tested against GLP1R (Homo sapiens, UniProt P43220) (assay: GLP1R cAMP HTRF assay, HEK293/GLP-1R/CRE/Luc (HEK293T cells)). Details: read-out: EC50.
Assay type: cell-based
Procedure, shortened: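 cAMP accumulation via HTRF after 30 min, 37 °C exposure of 1000 receptor-expressing cells/well to compound (0.5% DMSO final) in IBMX (500 μM)/0.1% BSA DPBS.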

Chain of GLP1R (P43220 24-463): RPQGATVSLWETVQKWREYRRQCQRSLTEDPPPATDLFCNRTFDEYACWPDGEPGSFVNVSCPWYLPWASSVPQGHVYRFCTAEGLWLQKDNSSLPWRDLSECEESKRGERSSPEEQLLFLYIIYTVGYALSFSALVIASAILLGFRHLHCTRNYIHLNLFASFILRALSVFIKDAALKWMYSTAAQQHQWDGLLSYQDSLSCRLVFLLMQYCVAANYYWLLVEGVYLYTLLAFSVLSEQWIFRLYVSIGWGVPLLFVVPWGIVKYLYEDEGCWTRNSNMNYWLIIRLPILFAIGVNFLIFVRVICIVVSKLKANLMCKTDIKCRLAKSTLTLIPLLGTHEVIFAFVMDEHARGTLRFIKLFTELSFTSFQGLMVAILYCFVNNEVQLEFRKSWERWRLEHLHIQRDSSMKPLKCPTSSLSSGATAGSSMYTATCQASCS

EC50	SMILES
≤ 150 nM	O=C(O)c1ccc2nc(CN3CC=C(c4cccc(OCc5ccc(-n6nccn6)cc5)n4)CC3)n(C[C@@H]3CCO3)c2c1 [Compound 243, (S)-2-((6-((4-(2H-1,2,3-triazol-2-yl)benzyl)oxy)-3′,6′-dihydro-[2,4′-bipyridin]-1′(2′H)-yl)methyl)-1-(oxetan-2-ylmethyl)-1H-benzo[d]imidazole-6-carboxylic add]
> 1000 nM	O=C(O)c1ccc2nc(CN3CCC(c4ccc5ccn(Cc6ccc(Cl)cc6F)c5c4)CC3)n(C[C@@H]3CCO3)c2c1 [Compound 26, (S)-2-((4-(1-(4-chloro-2-fluorobenzyl)-1 h-indol-6-yl)piperidin-1-yl)methyl)-1-(oxetan-2-ylmethyl)-1 h-benzo[d]imidazole-6-carboxylic acid]
≤ 150 nM	O=C(O)c1ccc2nc(CN3CCN(c4cccc(OCc5ccc(C#CC6CC6)cc5F)c4)CC3)n(C[C@@H]3CCO3)c2c1 [Compound 190, (S)-2-((4-(3-((4-(cyclopropylethynyl)-2-fluorobenzyl)oxy)phenyl)piperazin-1-yl)methyl)-1-(oxetan-2-ylmethyl)-1H-benzo[d]imidazole-6-carboxylic acid]
≤ 1000 nM	O=C(O)c1ccc2nc(CN3CC=C(c4cncc(OCc5ccc(Cl)cc5F)c4)CC3)n(C[C@@H]3CCO3)c2c1 [Compound 32, (S)-2-((5-((4-chloro-2-fluorobenzyl)oxy)-3′,6′-dihydro-[3H′-bipyridin]-1′(2′H)-yl)methyl)-1-(oxetan-2-ylmethyl)-1 h-benzo[d]imidazole-6-carboxylic acid]
≤ 15 nM	O=C(O)c1ccc2nc(CN3CCN(c4ncc(F)c(OCc5ccc(Cl)cc5F)n4)CC3)n(C[C@@H]3CCO3)c2c1 [Compound 180, (S)-2-((4-(4-(4-chloro-2-fluorobenzyloxy)-5-fluoropyrimidin-2-yl)piperazin-1-yl)methyl)-1-(oxetan-2-ylmethyl)-1H-benzo[d]imidazole-6-carboxylic add]
≤ 150 nM	O=C(O)c1ccc2nc(CN3CCCN(c4cccc(OCc5ccc(Cl)cc5F)n4)CC3)n(C[C@@H]3CCO3)c2c1 [Compound 15, (S)-2-((4-(6-(4-chloro-2-fluorobenzyloxy)pyridin-2-yl)-1,4-diazepan-1-yl)methyl)-1-(oxetan-2-ylmethyl)-1 h-benzo[d]imidazole-6-carboxylic acid]
≤ 15 nM	N#Cc1ccc(COc2cccc(N3CCC(Cc4nc5ccc(C(=O)O)cc5n4C[C@@H]4CCO4)CC3)n2)c(F)c1 [Compound 226, (S)-2-((l-(6-((4-cyano-2-fluorobenzyl)oxy)pyridin-2-yl)piperidin-4-yl)methyl)-1-(oxetan-2-ylmethyl)-1H-benzo[d]imidazole-6-carboxylic acid]
≤ 15 nM	O=C(O)c1ccc2nc(CN3CC=C(c4cccc(OCc5ccc(Cl)cc5F)n4)CC3)n(Cc3ncco3)c2c1 [Compound 72, 2-((6-((4-chloro-2-fluorobenzyl)oxy)-3′,6′-dihydro-[2,4′-bipyridin]-1′(2′H)-yl)methyl)-1-(oxazol-2-ylmethyl)-1H-benzo[d]imidazole-6-carboxyli acid]
> 1000 nM	Cn1c(CN2CCN(c3cccc(OCc4ccc(Cl)cc4F)n3)CC2)cc2ccc(C(=O)O)cc21 [Compound 50, 2-((4-(6-(4-chloro-2-fluorobenzyloxy)pyridin-2-yl)piperazin-1-yl)methyl)-1-methyl-1 h-indole-6-carboxylic add]
≤ 1000 nM	O=C(O)c1ccc2nc(CN3CCN(c4cc(OCc5ccc(C#CC6CC6)cc5F)ccc4F)CC3)n(C[C@@H]3CCO3)c2c1 [Compound 198, (S)-2-((4-(5-((4-(cyclopropylethynyl)-2-fluorobenzyl)oxy)-2-fluorophenyl)piperazin-1-yl)methyl)-1-(oxetan-2-ylmethyl)-1H-benzo[d]imidazole-6-carboxylic acid]
≤ 150 nM	O=C(O)c1ccc2nc(CN3CCN(c4cc(OCc5ccc(Cl)cc5F)ccc4F)CC3)n(C[C@@H]3CCO3)c2c1 [Compound 186, (S)-2-((4-(5-(4-chloro-2-fluorobenzyloxy)-2-fluorophenyl)piperazin-1-yl)methyl)-1-(oxetan-2-ylmethyl)-1H-benzo[d]imidazole-6-carboxylic acid]
> 1000 nM	O=C(O)c1ccc2nc(CN3CCN(c4ccc5c(n4)N(Cc4ccc(Cl)cc4F)CCC5)CC3)n(C[C@@H]3CCO3)c2c1 [Compound 3, (S)-2-((4-(8-(4-chloro-2-fluorobenzyl)-5,6,7,8-tetrahydro-1,8-naphthyridin-2yl)piperazin-1-yl)methyl)-1-(oxetan-2-ylmethyl)-1 h-benzo[d]imidazole-6-carboxylic acid]
≤ 150 nM	N#Cc1ccc(COc2cccc(N3CCC(Cc4nc5ccc(C(=O)O)c(F)c5n4C[C@@H]4CCO4)CC3)n2)nc1 [Compound 233, (S)-2-((l-(6-((5-cyanopyridin-2-yl)methoxy)pyridin-2-yl)piperidin-4-yl)methyl)-7-fluoro-1-(oxetan-2-ylmethyl)-1H-benzo[d]imidazole-6-carboxylic add]
≤ 15 nM	O=C(O)c1ccc2nc(CN3CC=C(c4nc(OCc5ccc(Cl)cc5F)c(F)cc4F)CC3)n(C[C@@H]3CCO3)c2c1 [Compound 131, (S)-2-((4-(6-(4-chloro-2-fluorobenzyloxy)-3,5-difluoropyridin-2-yl)-5,6-dihydropyridin-1(2H)-yl)methyl)-1-(oxetan-2-ylmethyl)-1H-benzo[d]imidazole-6-carboxylic add]
≤ 1000 nM	O=C(O)c1ccc2nc(CN3CC=C(c4ccnc(OCc5ccc(Cl)cc5F)c4)CC3)n(C[C@@H]3CCO3)c2c1 [Compound 31, (S)-2-((2′-((4-chloro-2-fluorobenzyl)oxy)-3,6-dihydro-[4,4′-bipyridin]-1(2H)-yl)methyl)-1-(oxetan-2-ylmethyl)-1H-benzo[d]imidazole-6-carboxylic add]
≤ 15 nM	O=C(O)c1ccc2nc(CN3CC=C(c4nc(OCc5ccc(F)cc5F)c(F)cc4F)CC3)n(C[C@@H]3CCO3)c2c1 [Compound 216, (S)-2-((4-(6-(2,4-difluorobenzyloxy)-3,5-difluoropyridin-2-yl)-5,6-dihydropyridin-1(2H)-yl)methyl)-1-(oxetan-2-ylmethyl)-1H-benzo[d]imidazole-6-carboxylic acid]
≤ 1000 nM	O=C(O)c1ccc2nc(CN3CC=C(c4cccc(OC5CCCc6cc(Cl)ccc65)n4)CC3)n(C[C@@H]3CCO3)c2c1 (stereo partly drawn) [Compound 60, 2-((6-((6-chloro-1,2,3,4-tetrahydronaphthalen-1-yl)oxy)-3′,6′-dihydro-[2,4′-bipyridin]-1′(2′H)-yl)methyl)-1-(((S)-oxetan-2-yl)methyl)-1H-benzo[d]imidazole-6-carboxylic acid]
≤ 15 nM	O=C(O)c1ccc2nc(CN3CC=C(c4cccc(OCc5cccnc5Cl)n4)CC3)n(C[C@@H]3CCO3)c2c1 [Compound 163]
≤ 150 nM	O=C(O)c1ccc2nc(CN3CC=C(c4ccc5ccn(Cc6ccc(Cl)cc6F)c5n4)CC3)n(C[C@@H]3CCO3)c2c1 [Compound 25, (S)-2-((4-(1-(4-chloro-2-fluorobenzyl)-1 h-pyrrolo[2,3-b]pyridin-6-yl)-5,6-dihydropyridin-1(2H)-yl)methyl)-1-(oxetan-2-ylmethyl)-1 h-benzo[d]imidazole-6-carboxylic acid]
≤ 1000 nM	O=C(O)c1ccc2nc(CN3CC=C(c4ccnc(OCc5ccc(C(F)(F)F)nc5)n4)CC3)n(C[C@@H]3CCO3)c2c1 [Compound 219, (S)-1-(oxetan-2-ylmethyl)-2-((4-(2-((6-(trifluoromethyl)pyridin-3-yl)methoxy)pyrimidin-4-yl)-5,6-dihydropyridin-1(2H)-yl)methyl)-1H-benzo[d]imidazole-6-carboxylic acid]
≤ 15 nM	O=C(O)c1ccc2nc(CN3CC=C(c4cccc(OCc5ccc(F)cc5F)n4)CC3)n(C[C@@H]3CCO3)c2c1 [Compound 141, (S)-2-((6-((2H-difluorobenzyl)oxy)-5′,6′-dihydro-[2,4′-bipyridin]-1′(2′H)-yl)methyl)-1-(oxetan-2-ylmethyl)-1H-benzo[d]imidazole-6-carboxylic add]
≤ 15 nM	N#Cc1ccc(COc2cccc(C3=CCN(Cc4nc5ccc(C(=O)O)cc5n4C[C@@H]4CCO4)CC3)c2)c(F)c1 [Compound 175, (S)-2-((4-(3-((4-cyano-2-fluorobenzyl)oxy)phenyl)-3,6-dihydropyridin-1(2H)-yl)methyl)-1-(oxetan-2-ylmethyl)-1H-benzo[d]imidazole-6-carboxylic acid]
≤ 1000 nM	CC(C)(C)c1ccc(COc2cccc(C3=CCN(Cc4nc5ccc(C(=O)O)cc5n4C[C@@H]4CCO4)CC3)n2)cc1 [Compound 147, (S)-2-((6-((4-(tert-butyl)benzyl)oxy)-5′,6′-dihydro-[2,4′-bipyridin]-1′(2H)-yl)methyl)-1-(oxetan-2-ylmethyl)-1H-benzo[d]imidazole-6-carboxylic add]
≤ 1000 nM	O=C(O)c1ccc2nc(CN3CC=C(c4cccc(OCc5cnccc5C(F)(F)F)n4)CC3)n(C[C@@H]3CCO3)c2c1 [Compound 150, (S)-1-(oxetan-2-ylmethyl)-2-((6-((4-(trifluoromethyl)pyridin-3-yl)methoxy)-3′,6′-dihydro-[2,4′-bipyridin]-1′(2′H)-yl)methyl)-1H-benzo[d]imidazole-6-carboxylic add]
> 1000 nM	O=C(O)c1ccc2nc(CN3CCN(c4cccn(CCc5ccc(Cl)cc5F)c4=O)CC3)n(C[C@@H]3CCO3)c2c1 [Compound 8, (S)-2-((4-(1-(4-chloro-2-fluorophenethyl)-2-oxo-1,2-dihydropyridin-3-yl)piperazin-1-yl)methyl)-1-(oxetan-2-ylmethyl)-1h-benzo[d]imidazole-6-carboxylic acid]
≤ 150 nM	O=C(O)c1ccc2nc(CN3CC=C(c4cccc(OCc5ccccn5)n4)CC3)n(C[C@@H]3CCO3)c2c1 [Compound 159, (S)-1-(oxetan-2-ylmethyl)-2-((6-(pyridin-2-ylmethoxy)-5′,6′-dihydro-[2,4′-bipyridin]-1′(2′H)-yl)methyl)-1H-benzo[d]imidazole-6-carboxylic acid]
≤ 150 nM	O=C(O)c1ccc2nc(CN3CC=C(c4cc(OCc5ccc(C#CC6CC6)cc5F)ccc4F)CC3)n(C[C@@H]3CCO3)c2c1 [Compound 208]

— patent US10844049B2, “GLP-1R agonists and uses thereof” (QILU REGOR THERAPEUTICS INC., priority 2018, dated 2020)
